Patent US20250281513A1, “USE OF PS[…] TREAT […]” (priority 2021, published 2025)
Read-outs that look alike come from different tables or passages of the source.

Experiments:
ABCF1 [1] = format: cell-based, murine; settings: RAW264.7, 10 nM, 100 nM, 500 nM, 2 hours post treatment, normalized to GAPDH (FIG. 2)
Protocol: • 1. Macrophage cell line RAW264.7 (ATCC) were grown to 80% confluency in growth media (DMEM+10% FBS+glutamine). • 2. Dilutions of the drugs were made at desired final concentrations for a Dose response experiment. The concentrations' used for this experiment are: 10 nM, 100 nM, 500 nM for Psilocin, Psylocibin, 4-Acetoxy-N, N-dimthyltryptamine, O-Acetyl Psilocin Fumerate, and 4-acetoxyindole. • 3. Untreated cells were used as negative control and Escitalopram at 0.3 mM was used as a positive control to activate ABCF1 expression for all the experiments. Analysis by qPCR:
• 1. 2 hours post treatment with drugs, the reaction was stopped by removing the media with the drug. Cells were then collected and RNA was isolated from these. • 2. After checking the quality of the RNA, cDNA was generated and qPCR was run with ABCF1 primers as the target gene and GAPDH as the house keeping gene. • 3. Normalized against the expression level of GAPDH, the fold change expression level of ABCF1 was calculated and tabulated for all treatment conditions.

ABCF1 [2] = test: Escitalopram induces ABCF1 in a macrophage cell line (real time RT-PCR); format: cell-based; settings: RAW macrophages, 0.3 mM, 1 hour
Protocol: RAW macrophages were plated at 1×10^5 cells/well and cultured for 2 days. The cells were incubated with 0.3 mM Escitalopram for 1 hour, and then harvested for total RNA, which was extracted for real time RT-PCR specific for ABCF1 and IL-4. CT values were normalized with CT value for the housekeeping gene from the DMSO control.

[3] = system: amyloid precursor protein (APP); test: Down regulation of APP in RAW cells by psychedelic drugs (Example 5); format: cell-based; settings: post 2 hours treatment (FIG. 9)

Structure (SMILES) | ABCF1 transcription / expression (ABCF1 [1]) | ABCF1 transcription / expression (ABCF1 [1]; listed as psylocin) | ABCF1 expression (ABCF1 [2]; vs DMSO control (FIG. 1)) | difference in the expression (ABCF1 and IL-4) after drug treatment (ABCF1 [2]; 3 separate experiments) | amyloid precursor protein (APP) expression [3]
CN(C)CCc1c[nH]c2cccc(O)c12 [psilocin, 4-hydroxy-N,N-dimethyltryptamine, reference compound] | enhance expression of ABCF1 | upregulate ABCF1 transcription | – | – | –
CN(C)CCC[C@@]1(c2ccc(F)cc2)OCc2cc(C#N)ccc21 [Escitalopram] | – | – | induces ABCF1 expression | consistent with polarization towards an M2-like phenotype | –
CC(=O)Oc1cccc2[nH]ccc12 [AOI, 4-acetoxyindole] | enhance expression of ABCF1 | – | – | – | down regulation
CC(=O)Oc1cccc2[nH]cc(CCN(C)C)c12.O=C(O)/C=C/C(=O)O [APF, O-Acetyl Psilocin Fumerate] | enhance expression of ABCF1 | – | – | – | down regulation
